The target of the assay is STAT3 (Homo sapiens, UniProt P40763). In words: Quantitation of STAT3 degradation in A549 cells by Western blot. The format is cell-based. Further details: expressed in transfected cells; host or cells: A549. Conditions: read-out: A549 DC50, 24 hours, tested up to 30 μM or 10 μM. In short, it runs like this:
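A549 cells treated 24 h at 37° C with compound at 30, 10, 3, 1, 0.3 μM or DMSO; RIPA lysates analysed by SDS-PAGE/Western blot for total STAT3, β-actin as loading control, LI-COR fluorescence read-out. DC50 derived by sigmoidal fit of dose-dependent degradation.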

This note sets out measurements from patent US12077555B2, “STAT degraders and uses thereof” (Kymera Therapeutics, Inc., priority 2019, dated 2024).

Structures are written as SMILES.

Sequence of STAT3 (P40763 whole entry): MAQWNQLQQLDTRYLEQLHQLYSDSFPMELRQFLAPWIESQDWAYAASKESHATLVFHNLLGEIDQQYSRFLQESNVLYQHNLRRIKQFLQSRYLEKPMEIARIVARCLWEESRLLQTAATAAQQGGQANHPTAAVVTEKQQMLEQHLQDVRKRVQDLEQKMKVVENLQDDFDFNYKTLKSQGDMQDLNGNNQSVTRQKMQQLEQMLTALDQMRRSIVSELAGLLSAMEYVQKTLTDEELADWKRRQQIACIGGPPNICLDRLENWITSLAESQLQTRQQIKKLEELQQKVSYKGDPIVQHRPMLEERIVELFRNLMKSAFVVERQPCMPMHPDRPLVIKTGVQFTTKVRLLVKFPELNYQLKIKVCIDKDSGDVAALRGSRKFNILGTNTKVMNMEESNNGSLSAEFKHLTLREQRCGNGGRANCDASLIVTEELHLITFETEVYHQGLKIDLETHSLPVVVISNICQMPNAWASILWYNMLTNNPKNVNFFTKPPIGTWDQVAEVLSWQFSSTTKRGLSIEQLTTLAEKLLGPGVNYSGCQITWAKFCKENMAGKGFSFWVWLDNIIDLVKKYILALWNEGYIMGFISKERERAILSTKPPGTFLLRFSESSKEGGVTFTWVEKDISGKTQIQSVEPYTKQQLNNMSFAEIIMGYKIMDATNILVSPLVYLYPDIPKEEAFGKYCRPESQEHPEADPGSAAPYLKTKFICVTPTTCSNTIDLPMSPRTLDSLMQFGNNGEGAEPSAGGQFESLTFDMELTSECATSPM

On to `Cc1ncsc1-c1ccc(CNC(=O)[C@@H]2C[C@@H](O)CN2C(=O)[C@@H](NC(=O)CCCCc2cccc(CO[C@H](C)[C@H](CCC(N)=O)NC(=O)[C@@H]3Cc4cccc5c4N3C(=O)[C@@H](NC(=O)c3cc4cc(C(=O)P(=O)(O)O)ccc4[nH]3)CC5)c2)C(C)(C)C)cc1` [Compound I-95, diammonium 2-[[(2S,11S)-2-[[(3S,4R)-1-carbamoyl-4-[[3-(4-[[(2S)-1-[(2S,4R)-4-hydroxy-2-([[4-(4-methyl-1,3-thiazol-5-yl)phenyl]methyl]carbamoyl)pyrrolidin-1-yl]-3,3-dimethyl-1-oxobutan-2-yl]carbamoyl]butyl)phenyl]methoxy]pentan-3-yl]carbamoyl]-12-oxo-1-azatricyclo[6.4.1.0^[4,13]]trideca-4(13),5,7-trien-11-yl]carbamoyl]-1H-indole-5-carbonylphosphonate], for which the half-maximal degradation concentration (DC50) was under 30 µM.
For `C/C(=C\C(=O)N[C@H]1CCc2cccc3c2N(C1=O)[C@H](C(=O)NC(CCC(N)=O)[C@@H](C)OCc1ccc(CCCCOCC(=O)N[C@H](C(=O)N2C[C@H](O)C[C@H]2C(=O)NCc2ccc(-c4scnc4C)cc2)C(C)(C)C)cc1)C3)c1ccc(C(F)(F)P(=O)(OCOC(=O)C(C)(C)C)OCOC(=O)C(C)(C)C)cc1` (some centres unmarked) [Compound I-34] the value was under 30 µM; for `Cn1c(=O)n(C2CCC(=O)NC2=O)c2ccc(C#CCCCC(=O)N3CC[C@H]4CC[C@@H](C(=O)N[C@@H](CCC(N)=O)C(=O)NC(c5ccccc5)c5ccccc5)N4C(=O)[C@@H](NC(=O)c4cc5cc(C(=O)P(=O)(O)O)ccc5[nH]4)C3)cc21` (stereo partly drawn) [Compound I-105, 2-[[(5S,8S,10aR)-8-[[(1S)-3-carbamoyl-1-(diphenylmethylcarbamoyl)propyl]carbamoyl]-3-[6-[1-(2,6-dioxopiperidin-3-yl)-3-methyl-2-oxo-1,3-benzodiazol-5-yl]hex-5-ynoyl]-6-oxo-octahydropyrrolo[1,2-a][1,5]diazocin-5-yl]carbamoyl]-1H-indole-5-carbonylphosphonic acid], under 30 µM; for `C/C(=C\C(=O)N[C@H]1CCc2cccc3c2N(C1=O)[C@H](C(=O)NC(CCC(N)=O)[C@@H](C)OCc1ccc(CCCOCCOCCOCCOCC(=O)N[C@H](C(=O)N2C[C@H](O)C[C@H]2C(=O)NCc2ccc(-c4scnc4C)cc2)C(C)(C)C)cc1)C3)c1ccc(C(F)(F)P(=O)(OCOC(=O)C(C)(C)C)OCOC(=O)C(C)(C)C)cc1` (some centres unmarked) [Compound I-32], over 10 µM.
In the case of `C/C(=C\C(=O)N[C@H]1CCc2cccc3c2N(C1=O)[C@H](C(=O)N[C@@H](CCC(N)=O)[C@@H](C)OCc1ccc(CCCOCCCc2cccc4c2n(C)c(=O)n4C2CCC(=O)NC2=O)cc1)C3)c1ccc(C(F)(F)P(=O)(OCOC(=O)C(C)(C)C)OCOC(=O)C(C)(C)C)cc1` (stereo partly drawn) [Compound I-10, [([4-[(1E)-1-[[(2S,11S)-2-[[(3S,4R)-1-carbamoyl-4-[[4-(3-[3-[1-(2,6-dioxopiperidin-3-yl)-3-methyl-2-oxo-1,3-benzodiazol-4-yl]propoxy]propyl)phenyl]methoxy]pentan-3-yl]carbamoyl]-12-oxo-1-azatricyclo[6.4.1.0^[4,13]]trideca-4(13),5,7-trien-11-yl]carbamoyl]prop-1-en-2-yl]phenyl]difluoromethyl([(2,2-dimethylpropanoyl)oxy]methoxy)phosphoryl)oxy]methyl 2,2-dimethylpropanoate] it was over 30 µM.
Take `C/C(=C\C(=O)N[C@H]1CCc2cccc3c2N(C1=O)[C@H](C(=O)N[C@@H](CCC(N)=O)[C@@H](C)OCc1ccc(CCCCCc2cccc4c2n(C)c(=O)n4C2CCC(=O)NC2=O)cc1)C3)c1ccc(C(F)(F)P(=O)(OCOC(=O)C(C)(C)C)OCOC(=O)C(C)(C)C)cc1` (stereo partly drawn) [Compound I-6, [([4-[(1E)-1-[[(2S,11S)-2-[[(3S,4R)-1-carbamoyl-4-[(4-[5-[1-(2,6-dioxopiperidin-3-yl)-3-methyl-2-oxo-1,3-benzodiazol-4-yl]pentyl]phenyl)methoxy]pentan-3-yl]carbamoyl]-12-oxo-1-azatricyclo[6.4.1.0^[4,13]]trideca-4(13),5,7-trien-11-yl]carbamoyl]prop-1-en-2-yl]phenyl]difluoromethyl([(2,2-dimethylpropanoyl)oxy]methoxy)phosphoryl)oxy]methyl 2,2-dimethylpropanoate]: the 50% degradation concentration (DC50) was over 30 µM.
Take `Cn1c(C(=O)N[C@H]2CN(C(=O)CCCCCC#Cc3cccc4c3CN(C3CCC(=O)NC3=O)C4=O)CC[C@H]3CC[C@@H](C(=O)N[C@@H](CCC(N)=O)C(=O)NC(c4ccccc4)c4ccccc4)N3C2=O)cc2cc(C(=O)P(=O)(O)O)ccc21` (stereo partly drawn) [Compound I-102, diammonium 2-[[(5S,8S,10aR)-8-[[(1S)-3-carbamoyl-1-(diphenylmethylcarbamoyl)propyl]carbamoyl]-3-[8-[2-(2,6-dioxopiperidin-3-yl)-1-oxo-3H-isoindol-4-yl]oct-7-ynoyl]-6-oxo-octahydropyrrolo[1,2-a][1,5]diazocin-5-yl]carbamoyl]-1-methylindole-5-carbonylphosphonate]: the DC50 was under 30 µM.
In the case of `C[C@@H](OCc1ccc(CCCCCCc2ccc3c(c2)n(C)c(=O)n3C2CCC(=O)NC2=O)cc1)[C@H](CCC(N)=O)NC(=O)[C@@H]1Cc2cccc3c2N1C(=O)[C@@H](NC(=O)c1cc2cc(C(=O)P(=O)(O)O)ccc2[nH]1)CC3` (stereo partly drawn) [Compound I-118, diammonium 2-[[(2S,11S)-2-[[(3S,4R)-1-carbamoyl-4-[(4-[6-[1-(2,6-dioxopiperidin-3-yl)-3-methyl-2-oxo-1,3-benzodiazol-5-yl]hexyl]phenyl)methoxy]pentan-3-yl]carbamoyl]-12-oxo-1-azatricyclo[6.4.1.0^[4,13]]trideca-4(13),5,7-trien-11-yl]carbamoyl]-1H-indole-5-carbonylphosphonate] it was over 30 µM.
In the case of `Cn1c(=O)n(C2CCC(=O)NC2=O)c2cccc(CCCCCCCC(=O)N3CC[C@H]4CC[C@@H](C(=O)N[C@@H](CCC(N)=O)C(=O)NC(c5ccccc5)c5ccccc5)N4C(=O)[C@@H](NC(=O)c4cc5cc(C(=O)P(=O)(O)O)ccc5[nH]4)C3)c21` (some centres unmarked) [Compound I-91] it was under 30 µM; in that of `C/C(=C\C(=O)N[C@H]1CCc2cccc3c2N(C1=O)[C@H](C(=O)N[C@@H](CCC(N)=O)[C@@H](C)OCc1ccc(CCCNC(=O)COCCCc2ccc4c(c2)n(C)c(=O)n4C2CCC(=O)NC2=O)cc1)C3)c1ccc(C(F)(F)P(=O)(OCOC(=O)C(C)(C)C)OCOC(=O)C(C)(C)C)cc1` (some centres unmarked) [Compound I-68], over 30 µM.
In the case of `C/C(=C\C(=O)N[C@H]1CCc2cccc3c2N(C1=O)[C@H](C(=O)N[C@@H](CCC(N)=O)[C@@H](C)OCc1ccc(C(=O)N[C@H](C(=O)N2C[C@H](O)CC2C(=O)NCc2ccc(-c4scnc4C)cc2)C(C)(C)C)cc1)C3)c1ccc(C(F)(F)P(=O)(OCOC(=O)C(C)(C)C)OCOC(=O)C(C)(C)C)cc1` (some centres unmarked) [Compound I-11], the DC50 was over 30 µM.
For `C[C@@H](OCc1ccc(CCCCc2ccc3c(c2)n(C)c(=O)n3C2CCC(=O)NC2=O)cc1)[C@H](CCC(N)=O)NC(=O)[C@@H]1Cc2cccc3c2N1C(=O)[C@@H](NC(=O)c1cc2cc(C(=O)P(=O)(O)O)ccc2[nH]1)CC3` (some centres unmarked) [Compound I-84] the value was over 30 µM; for `C/C(=C\C(=O)N[C@H]1CCc2cccc3c2N(C1=O)[C@H](C(=O)N[C@@H](CCC(N)=O)[C@@H](C)OCCCc1ccc2c(c1)n(C)c(=O)n2C1CCC(=O)NC1=O)C3)c1ccc(C(F)(F)P(=O)(O)O)cc1` (stereo partly drawn) [Compound I-110, diammonium [4-[(1E)-1-[[(2S,11S)-2-[[(3S,4R)-1-carbamoyl-4-[3-[1-(2,6-dioxopiperidin-3-yl)-3-methyl-2-oxo-1,3-benzodiazol-5-yl]propoxy]pentan-3-yl]carbamoyl]-12-oxo-1-azatricyclo[6.4.1.0^[4,13]]trideca-4(13),5,7-trien-11-yl]carbamoyl]prop-1-en-2-yl]phenyl]difluoromethylphosphonate], over 30 µM; for `C/C(=C\C(=O)N[C@H]1CCc2cccc3c2N(C1=O)[C@H](C(=O)N[C@@H](CCC(N)=O)[C@@H](C)OCc1ccc(CCOCCOCCOCC(=O)N[C@H](C(=O)N2C[C@H](O)C[C@H]2C(=O)NCc2ccc(-c4scnc4C)cc2)C(C)(C)C)cc1)C3)c1ccc(C(F)(F)P(=O)(OCOC(=O)C(C)(C)C)OCOC(=O)C(C)(C)C)cc1` [Compound I-30], over 10 µM.
On to `Cc1ncsc1-c1ccc(C2(NC(=O)[C@@H]3C[C@@H](O)CN3C(=O)[C@@H](NC(=O)CCCCc3ccc(CO[C@H](C)[C@H](CCC(N)=O)NC(=O)[C@@H]4Cc5cccc6c5N4C(=O)[C@@H](NC(=O)c4cc5cc(C(=O)P(=O)(O)O)ccc5[nH]4)CC6)cc3)C(C)(C)C)CC2)cc1` [Compound I-90, 2-[[(2S,11S)-2-[[(3S,4R)-1-carbamoyl-4-[[4-(4-[[(2S)-1-[(2S,4R)-4-hydroxy-2-([1-[4-(4-methyl-1,3-thiazol-5-yl)phenyl]cyclopropyl]carbamoyl)pyrrolidin-1-yl]-3,3-dimethyl-1-oxobutan-2-yl]carbamoyl]butyl)phenyl]methoxy]pentan-3-yl]carbamoyl]-12-oxo-1-azatricyclo[6.4.1.0^[4,13]]trideca-4(13),5,7-trien-11-yl]carbamoyl]-1H-indole-5-carbonylphosphonic acid], for which the half-maximal degradation concentration (DC50) was under 30 µM.
With `C/C(=C\C(=O)N[C@H]1CCc2cccc3c2N(C1=O)[C@H](C(=O)N[C@@H](CCC(N)=O)[C@@H](C)OCc1ccc(CCCCCC(=O)N[C@H](C(=O)N2C[C@H](O)C[C@H]2C(=O)NCc2ccc(-c4scnc4C)cc2)C(C)(C)C)cc1)C3)c1ccc(C(F)(F)P(=O)(OCOC(=O)C(C)(C)C)OCOC(=O)C(C)(C)C)cc1` [Compound I-71], the DC50 is under 30 µM.
For `Cc1ncsc1-c1ccc(CNC(=O)[C@@H]2C[C@@H](O)CN2C(=O)[C@@H](NC(=O)CCCCCCc2ccc(CO[C@H](C)[C@H](CCC(N)=O)NC(=O)[C@@H]3Cc4cccc5c4N3C(=O)[C@@H](NC(=O)c3cc4cc(C(=O)P(=O)(O)O)ccc4[nH]3)CC5)cc2)C(C)(C)C)cc1` [Compound I-100] the value was under 30 µM.

The DC50 is the concentration at which degradation of the target reaches its halfway point.
